Among the data in US10766869B2, “Triazoles for the treatment of demyelinating dieases” (Vertex Pharmaceuticals Incorporated, priority 2015, dated 2020) are fold induction values, retold here.

This assay concerns primary rat mixed cortical cells. The assay is described as follows: In vitro myelination assay (MBP positive myelin strands, fold myelin pixels above background). In kind it is cell-based. The following applies: Rattus norvegicus; for fold induction at 1 µM: 1.0 μM compound; for fold induction at 10 µM: 10.0 μM compound. In short, it runs like this: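 Fourteen-day treatment of primary P1 rat mixed cortical cultures, re-dosed at days 6 and 10, at 1.0 μM and 10.0 μM. MBP immunofluorescence was imaged at 10× and myelin strands quantified by software, normalised to untreated wells as fold above background.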

Setting [1] is: relative to baseline of no added compound, read-out: Fold myelin pixels above background, 1.0 μM.
Where [2] appears, read: relative to baseline of no added compound, read-out: Fold myelin pixels above background, 10.0 μM.
Where [3] appears, read: read-out: Fold myelin pixels above background relative to baseline of no added compound.
Where [4] appears, read: relative to baseline of no added compound, read-out: Fold myelin pixels above background.

Structures are written as SMILES. Read-outs that look alike come from different tables or passages of the source.

Consider `CCc1cc(F)cc(-n2cnc(Nc3cc(C)cc(N4CCN(C)CC4)c3)n2)c1` [Compound 255, 1-(3-ethyl-5-fluoro-phenyl)-N-[3-methyl-5-(4-methylpiperazin-1-yl)phenyl]-1,2,4-triazol-3-amine], for which the fold induction at 1 µM under setting [1] was 100 to 1000. The fold induction at 10 µM under setting [2] is 100 to 1000.
With `Cc1cc(Nc2ncn(-c3cc(F)cc(F)c3)n2)nc(C2CCN(C3COC3)CC2)c1` [Compound 801, N-[1-(3,5-difluorophenyl)-1,2,4-triazol-3-yl]-4-methyl-6-[1-(oxetan-3-yl)-4-piperidyl]pyridin-2-amine], under setting [3], the fold induction at 1 µM was 1 to 10 and the fold induction at 10 µM was 1 to 10.
For `Cc1cc(CN2CCN(C3COC3)CC2)cc(Nc2ncn(-c3ccc(F)c(F)c3)n2)c1` [Compound 840, 1-(3,4-difluorophenyl)-N-[3-methyl-5-[[4-(oxetan-3-yl)piperazin-1-yl]methyl]phenyl]-1,2,4-triazol-3-amine], under setting [3], the fold induction at 1 µM lay within 10 to 100 and the fold induction at 10 µM lay in the range of 10 to 100.
`Fc1cc(F)cc(-n2cnc(Nc3cc(C4CC4)cc(N4CCN(C5COC5)CC4)c3)n2)c1` [Compound 389, N-(3-cyclopropyl-5-(4-(oxetan-3-yl)piperazin-1-yl)phenyl)-1-(3,5-difluorophenyl)-1H-1,2,4-triazol-3-amine]: under setting [4], the fold induction at 1 µM is 1000 to 10000 and the fold induction at 10 µM was no more than 1.
`Cc1cc(Nc2ncn(-c3cc(F)cc(F)c3)n2)cc(N2CCN(C(CO)CO)CC2)c1` [Compound 79, 2-[4-[3-[[1-(3,5-difluorophenyl)-1,2,4-triazol-3-yl]amino]-5-methyl-phenyl]piperazin-1-yl]propane-1,3-diol]: the fold induction at 1 µM under setting [1] lay in the range of 10 to 100. The fold induction at 10 µM under setting [2] was no more than 1.
`CCc1cc(Nc2ncn(-c3ccc(F)cc3)n2)cc(N2CCN(C3(C)COC3)CC2)c1` [Compound 802, N-[3-ethyl-5-[4-(3-methyloxetan-3-yl)piperazin-1-yl]phenyl]-1-(4-fluorophenyl)-1,2,4-triazol-3-amine]: under setting [3], the fold induction at 1 µM lay within 10 to 100 and the fold induction at 10 µM was no more than 1.
For `[2H]C1([2H])N(C(=O)C2CC2)C([2H])([2H])C([2H])([2H])N(c2cc(C)cc(Nc3ncn(-c4cc(F)cc(F)c4)n3)c2)C1([2H])[2H]` [Compound 961, cyclopropyl-[2,2,3,3,5,5,6,6-octadeuterio-4-[3-[[1-(3,5-difluorophenyl)-1,2,4-triazol-3-yl]amino]-5-methyl-phenyl]piperazin-1-yl]methanone], in that order: 1 to 10 and 1 to 10.
With `CC(C)(C)N1CCN(c2cc(Nc3ncn(-c4cc(F)cc(F)c4)n3)cc(N3CCN(C(C)(C)C)CC3)c2)CC1` [Compound 573, N-[3,5-bis(4-tert-butylpiperazin-1-yl)phenyl]-1-(3,5-difluorophenyl)-1,2,4-triazol-3-amine], under setting [4], the fold induction at 1 µM was in the range of 1 to 10 and the fold induction at 10 µM was in the range of 1 to 10.
As to `Cc1cc(Nc2ncn(-c3ccccc3)n2)cc(Nc2ncc(C)s2)c1` [Compound 588, 5-methyl-N1-(5-methylthiazol-2-yl)-N3-(1-phenyl-1,2,4-triazol-3-yl)benzene-1,3-diamine], under setting [4], the fold induction at 1 µM lay in the range of 10 to 100 and the fold induction at 10 µM was no more than 1.
On to `CCOc1nccc(-n2cnc(Nc3cc(C)cc(N4CCN(C5COC5)CC4)c3)n2)n1` [Compound 204, 1-(2-ethoxypyrimidin-4-yl)-N-[3-methyl-5-[4-(oxetan-3-yl)piperazin-1-yl]phenyl]-1,2,4-triazol-3-amine], for which, under setting [1], the fold induction at 1 µM is no more than 1. The fold induction at 10 µM under setting [2] was no more than 1.
Regarding `Cc1cc(Nc2ncn(-c3cc(F)cc(F)c3)n2)cc(N2CCN(C(=O)OCC(F)(F)F)CC2)c1` [Compound 350, 2,2,2-trifluoroethyl 4-[3-[[1-(3,5-difluorophenyl)-1,2,4-triazol-3-yl]amino]-5-methyl-phenyl]piperazine-1-carboxylate], the fold induction at 1 µM under setting [1] is no more than 1. In addition, the fold induction at 10 µM under setting [2] was no more than 1.
Regarding `COC(=O)N1CCC(c2cc(C)cc(Nc3ncn(-c4ccccc4)n3)c2)CC1` [Compound 12, methyl 4-[3-methyl-5-[(1-phenyl-1,2,4-triazol-3-yl)amino]phenyl]piperidine-1-carboxylate], under setting [1], the fold induction at 1 µM lay in the range of 100 to 1000. Besides, under setting [2], the fold induction at 10 µM lay within 1 to 10.
Take `Cc1cc(Nc2ncn(-c3ccccc3)n2)cc(N2CCC(C)(O)C2)c1` (stereo not drawn) [Compound 6]: under setting [1], the fold induction at 1 µM was in the range of 100 to 1000. For the same compound, the fold induction at 10 µM under setting [2] was 10 to 100.
Take `Cc1cc(Nc2ncn(-c3cc(F)cc(F)c3)n2)cc(N2CCCN(C3COC3)CC2)c1` [Compound 637, 1-(3,5-difluorophenyl)-N-[3-methyl-5-[4-(oxetan-3-yl)-1,4-diazepan-1-yl]phenyl]-1,2,4-triazol-3-amine]: under setting [4], the fold induction at 1 µM lay within 100 to 1000 and the fold induction at 10 µM is no more than 1.
Turning to `Cc1cc(Nc2ncn(-c3cc(F)cc(F)c3)n2)cc(NC2CCOCC2N2CCCC2)c1` (stereo not drawn) [Compound 884, N3-[1-(3,5-difluorophenyl)-1,2,4-triazol-3-yl]-5-methyl-N1-(3-pyrrolidin-1-yltetrahydropyran-4-yl)benzene-1,3-diamine], under setting [3], the fold induction at 1 µM is 1 to 10 and the fold induction at 10 µM is no more than 1.
On to `Cc1cc(Nc2ncn(-c3cc(F)cc(F)c3)n2)cc(C2(O)CCN(C3COC3)C2)c1` (stereo not drawn) [Compound 416, 3-[3-[[1-(3,5-difluorophenyl)-1,2,4-triazol-3-yl]amino]-5-methyl-phenyl]-1-(oxetan-3-yl)pyrrolidin-3-ol], for which, under setting [4], the fold induction at 1 µM lay within 100 to 1000 and the fold induction at 10 µM was in the range of 10 to 100.
Regarding `Cc1cc(Nc2ncn(-c3cc(F)cc(F)c3)n2)cc(N2CCN(C3CCOC3)CC2)c1` (stereo not drawn) [Compound 137, 1-(3,5-difluorophenyl)-N-[3-methyl-5-(4-tetrahydrofuran-3-ylpiperazin-1-yl)phenyl]-1,2,4-triazol-3-amine], under setting [1], the fold induction at 1 µM lay within 1000 to 10000. Also, the fold induction at 10 µM under setting [2] lay in the range of 100 to 1000.
For `Cc1cc(Nc2ncn(-c3cc(F)cc(F)c3)n2)cc(N2CCN(CCN3CCOCC3)CC2)c1` [Compound 593, 1-(3,5-difluorophenyl)-N-[3-methyl-5-[4-(2-morpholinoethyl)piperazin-1-yl]phenyl]-1,2,4-triazol-3-amine], under setting [4], the fold induction at 1 µM was 1 to 10 and the fold induction at 10 µM is no more than 1.
With `Cc1cc(Nc2ncn(-c3cc(F)cc(F)c3)n2)cc(N2CCC(N3CCOCC3)C2)c1` (stereo not drawn) [Compound 284, 1-(3,5-difluorophenyl)-N-[3-methyl-5-(3-morpholinopyrrolidin-1-yl)phenyl]-1,2,4-triazol-3-amine], the fold induction at 1 µM under setting [1] lay within 1 to 10. Moreover, the fold induction at 10 µM under setting [2] fell in the range of 1 to 10.
Turning to `COCC1CCCN(c2cc(C)cc(Nc3ncn(-c4cc(F)cc(F)c4)n3)n2)C1` (stereo not drawn) [Compound 786, N-[1-(3,5-difluorophenyl)-1,2,4-triazol-3-yl]-6-[3-(methoxymethyl)-1-piperidyl]-4-methyl-pyridin-2-amine], under setting [4], the fold induction at 1 µM was 1 to 10 and the fold induction at 10 µM is no more than 1.
On to `Cc1cc(C#CC2CC2)cc(Nc2ncn(-c3cc(F)cc(F)c3)n2)c1` [Compound 798, N-[3-(2-cyclopropylethynyl)-5-methyl-phenyl]-1-(3,5-difluorophenyl)-1,2,4-triazol-3-amine], for which, under setting [3], the fold induction at 1 µM is 1 to 10 and the fold induction at 10 µM is 1 to 10.
Turning to `Fc1cccc(-n2cnc(Nc3cc(C4CC4)cc(N4CCN(C5COC5)CC4)c3)n2)c1` [Compound 462, N-[3-cyclopropyl-5-[4-(oxetan-3-yl)piperazin-1-yl]phenyl]-1-(3-fluorophenyl)-1,2,4-triazol-3-amine], under setting [4], the fold induction at 1 µM was 100 to 1000 and the fold induction at 10 µM was no more than 1.
For `Cc1cc(Nc2ncn(-c3cc(F)cc(F)c3)n2)nc(N2CC3(CCO3)C2)c1` [Compound 571, N-[1-(3,5-difluorophenyl)-1,2,4-triazol-3-yl]-4-methyl-6-(3-oxa-6-azaspiro[3.3]heptan-6-yl)pyridin-2-amine], in that order: no more than 1 and 1 to 10.
With `Cc1cc(Nc2ncn(-c3ccccc3)n2)cc(N2CCNC(C)C2)c1` (stereo not drawn) [Compound 259, N-[3-methyl-5-(3-methylpiperazin-1-yl)phenyl]-1-phenyl-1,2,4-triazol-3-amine], under setting [1], the fold induction at 1 µM lay within 1000 to 10000. The fold induction at 10 µM under setting [2] was no more than 1.
Take `Cc1c(Nc2ncn(-c3ccccn3)n2)cc(N2CCN(C3COC3)CC2)cc1OC(C)C` [Compound 862, N-[3-isopropoxy-2-methyl-5-[4-(oxetan-3-yl)piperazin-1-yl]phenyl]-1-(2-pyridyl)-1,2,4-triazol-3-amine]: under setting [3], the fold induction at 1 µM is 1 to 10 and the fold induction at 10 µM fell in the range of 10 to 100.
As for `Cc1cc(Nc2ncn(-c3cc(F)cc(F)c3)n2)cc(N2CCC(CCO)CC2)c1` [Compound 874, 2-[1-[3-[[1-(3,5-difluorophenyl)-1,2,4-triazol-3-yl]amino]-5-methyl-phenyl]-4-piperidyl]ethanol], under setting [3], the fold induction at 1 µM was 10 to 100 and the fold induction at 10 µM is no more than 1.
Take `Fc1cccc(-n2cnc(Nc3cc(N4CCN(C5COC5)CC4)cc(C(F)(F)F)c3)n2)c1` [Compound 175, 1-(3-fluorophenyl)-N-[3-[4-(oxetan-3-yl)piperazin-1-yl]-5-(trifluoromethyl)phenyl]-1,2,4-triazol-3-amine]: the fold induction at 1 µM under setting [1] was 1000 to 10000. The fold induction at 10 µM under setting [2] is no more than 1.
